Common to all, as to assay type: in vivo
Series [1] concerns New Zealand White rabbits. As to the kind of experiment: Chemical analysis of blood of cholesterol-fed rabbits. As to conditions: rabbit serum, 1 % cholesterol diet for 6 weeks plus 1 mg/kg Lovastatin or 0.05 % neohesperidin dihydrochalcone. As for the experimental part: (§1) 30 three-month-old New Zealand White rabbits(Yeonam Horticulture and Animal Husbandry College, Korea), each weighing about 2.5 to 2.6 kg, were raised under a condition of temperature 20±2°C, relative humidity 55±5 %, and photoperiod 12L/12D. The rabbits were divided into 3 groups and 3 groups of rabbits were fed with 3 different diets, i.e., RC4 diet(Oriental Yeast Co., Japan) containing 1 % cholesterol(Control group); 1 % cholesterol plus 1 mg/kg Lovastatin®(Merck, U.S.A.)(Lovastatin group); and 1 % cholesterol plus 0.05 % neohesperidin dihydrochalcone(Neohesperidin dihydrochalcone group), respectively. RC4 diet comprises 7.6 % moisture, 22.8 % crude protein, 2.8 % crude fat, 8.8 % crude ash, 14.4 % crude cellulose and 43.6 % soluble nitrogen-free substances. Neohesperidin dihydrochalcone was purchased from Sigma Chemical Co.(St. Louis, MO).
(§2) The rabbits were fed for 6 weeks while being allowed free access to the diets and water.
After six weeks, the rabbits were anesthetized with an intramuscular injection of ketamine (50 mg/kg) in the femoral region and sacrificed.

The subject of series [2] is New Zealand White rabbits. In words: Analysis for fatty streak in the main artery of cholesterol-fed rabbits (Oil Red O staining). The conditions noted are these: 1 % cholesterol diet for 6 weeks plus 1 mg/kg Lovastatin or 0.05 % neohesperidin dihydrochalcone. As for the experimental part: as §1, §2
The chest of each of the rabbits sacrificed in Step 2 was incised. The downward portion of the main artery from the site 1 cm above the aortic valve was cut out in a length of about 5 cm and the fat surrounding the main artery was removed. The main artery was incised in the middle along the longitudinal axis and pinned to a dish. The moist artery was photographed and, then, the staining of fatty streaks was carried out in accordance with the method of Esper, E., et al. (J. Lab. Clin. Med., 121, 103-110(1993)) as follows.
A part of the incised main artery was washed three times with anhydrous propylene glycol for 2 min and stained for 30 min. with a saturated solution of Oil Red O(ORO, Sigma Co.) dissolved in propylene glycol. Thereafter, the artery was washed twice with 85 % propylene glycol for 3 min. to remove remaining staining solution and, then washed with physiological saline. The artery was photographed and the photograph was traced. The area of stained region (fatty streak region) was determined with an image analyzer(LEICA, Q-600, Germany) and its proportion(%) to the total arterial area was calculated.

In series [3] the test system is New Zealand White rabbits. In words: Microscopic grading of abnormal fat-containing cells in the liver of cholesterol-fed rabbits (fatty liver). The conditions noted are these: 1 % cholesterol diet for 6 weeks plus 1 mg/kg Lovastatin or 0.05 % neohesperidin dihydrochalcone. The protocol: as §1, §2
In order to evaluate the effects of feeding a high cholesterol diet with neohesperidin dihydrochalcone on liver tissues, the liver specimens taken from the sacrificed rabbit in Step 2 of Example 6 were treated in accordance with the procedure disclosed in Fogt F. and Nanji A., Toxicology and Applied Pharmacology, 136, 87-93, 1996; and Keegan A., et al., Journal of Hepatology 23: 591-600, 1995, and observed under a microscope to be classified into four grades, i.e., 1+(0-25%), 2+(26-50%), 3+(51-75), 4+(76-100%) based on the proportion of abnormal fat-containing cells around the central vein in the liver acinus.
Figs. 2A, 2B and 2C present the microscopic features of the livers of the rabbits administered with 1% cholesterol; 1% cholesterol plus 1 mg/kg Lovastatin®; 1% and cholesterol plus 0.05% neohesperidin dihydrochalcone, respectively.

Take `CC[C@H](C)C(=O)O[C@H]1C[C@@H](C)C=C2C=C[C@H](C)[C@H](CC[C@@H]3C[C@@H](O)CC(=O)O3)[C@H]21` [Lovastatin, reference compound]: in series [1], the GOT is 125 (±19) IU/1, the GPT was 73 (±9) IU/l, the Total-C was 1210 (±263) mg/dl and the γ-GTP is reported as 12.4 (±0.8) IU/l. For the same molecule, the “A: Proportion(%) of fatty streak region to the total arterial area” value in series [2] (rabbit main artery) is given as 5 (±4) %. In series [2] (rabbits), the “layer of macrophage-lipid complex on the arterial endothelium (Figs. 1B, 1C)” value was “no or very thin layers of macrophage-lipid complex”. In addition, the “B: Proportion of abnormal fat-containing cells” value in series [3] (rabbit liver, cells around the central vein, mean of grades 1+ to 4+) was 3.4 (±0.5). Moreover, in series [3] (rabbits), the “microscopic features of the liver (Figs. 2B, 2C)” value is “many cells containing excessive fat”.
